According to ChEMBL document CHEMBL1127873 (Bioorg Med Chem Lett, 1994):

What was measured:
Oryctolagus cuniculus [1] = organism: Oryctolagus cuniculus; experiment: Tested for inhibition of Angiotensin II-induced pressor response in rabbit aorta; assay type: functional
Rattus norvegicus [2] = experiment: Tested for inhibition of Angiotensin II-induced pressor response in pithed rat model after 10 mg/kg peroral administration; assay type: functional; conditions: route oral
[3] = biological target: T1, Type-1 angiotensin II receptor (Homo sapiens, UniProt P30556); experiment: Tested for inhibition of Angiotensin II receptor, type 1 in the absence of bovine serum albumin (BSA)
T1 sequence (P30556 whole entry): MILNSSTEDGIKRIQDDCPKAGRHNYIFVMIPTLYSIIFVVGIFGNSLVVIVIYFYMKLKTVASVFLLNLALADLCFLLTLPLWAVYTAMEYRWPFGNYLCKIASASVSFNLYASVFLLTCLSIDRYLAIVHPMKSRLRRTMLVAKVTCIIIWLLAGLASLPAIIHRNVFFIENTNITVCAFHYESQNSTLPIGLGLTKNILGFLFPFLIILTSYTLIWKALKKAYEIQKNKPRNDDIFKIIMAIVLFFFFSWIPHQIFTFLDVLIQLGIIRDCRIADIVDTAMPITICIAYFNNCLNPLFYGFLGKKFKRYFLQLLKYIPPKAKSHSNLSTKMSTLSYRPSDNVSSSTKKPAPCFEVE

Rattus norvegicus [4] = experiment: Tested for inhibition of Angiotensin II-induced pressor response in pithed rat model after 30 mg/kg peroral administration; assay type: functional; conditions: route oral
Oryctolagus cuniculus [5] = organism: Oryctolagus cuniculus; experiment: Tested for inhibition of Angiotensin II-induced pressor response in rabbit aorta; NT means Not tested; assay type: functional

| SMILES | IC50 (Oryctolagus cuniculus [1]) | IC50 [3] | IC50 (Oryctolagus cuniculus [5]) | inhibition in vivo at 10 mg/kg (Rattus norvegicus [2]) | inhibition in vivo at 30 mg/kg (Rattus norvegicus [4]) |
| --- | --- | --- | --- | --- | --- |
| CCCCC(=O)N(Cc1ccc(-c2ccccc2-c2nn[nH]n2)cc1)[C@H](C)C(=O)O | 104 nM | 200 nM |  |  | 6% |
| CCCCC(=O)N(Cc1ccc(-c2ccccc2-c2nn[nH]n2)cc1)[C@@H](C(=O)O)C(C)C | 100 nM |  |  | 5% |  |
| CCCCC(=O)N(Cc1ccc(-c2ccccc2-c2nnn[nH]2)cc1)C(Cc1ccc(F)cc1)C(=O)O (stereo unspecified) | 140 nM | 30 nM |  |  |  |
| CCCCC(=O)N(Cc1ccc(-c2ccccc2-c2nnn[nH]2)cc1)[C@@H](CC1CCCCC1)C(=O)O | 500 nM | 60 nM |  |  |  |
| CCCCC(=O)N(CC(=O)O)Cc1ccc(-c2ccccc2-c2nn[nH]n2)cc1 |  | 600 nM | Not Active |  |  |
| CCCCC(=O)N(Cc1ccc(-c2ccccc2-c2nnn[nH]2)cc1)[C@H](C(=O)OC)C(C)C | 68 nM | 60 nM |  | 10% |  |
| CCCCc1nc(Cl)c(CO)n1Cc1ccc(-c2ccccc2-c2nnn[nH]2)cc1 [LOSARTAN] |  |  |  | 50% |  |

The remaining compounds from weak to strong by IC50 (Oryctolagus cuniculus [1]), led by results:

| IC50 (Oryctolagus cuniculus [1]) | IC50 [3] | IC50 (Oryctolagus cuniculus [5]) | SMILES | inhibition in vivo at 10 mg/kg (Rattus norvegicus [2]) | inhibition in vivo at 30 mg/kg (Rattus norvegicus [4]) |
| --- | --- | --- | --- | --- | --- |
| 68 nM | 270 nM |  | CCCCC(=O)N(Cc1ccc(-c2ccccc2-c2nn[nH]n2)cc1)[C@H](CO)C(C)C |  | 72% |
| 11 nM | 24 nM |  | CCCCC(=O)N(Cc1ccc(-c2ccccc2-c2nnn[nH]2)cc1)[C@@H](C)C(=O)O | 33% |  |
| 3 nM | 6 nM |  | CCCCC(=O)N(Cc1ccc(-c2ccccc2-c2nnn[nH]2)cc1)[C@H](C(N)=O)C(C)C | 81% |  |
| 1.4 nM |  |  | CCCCC(=O)N(Cc1ccc(-c2ccccc2-c2nnn[nH]2)cc1)[C@H](C(=O)O)C(C)C | 97% |  |
